In this assay the test system is Mycobacterium tuberculosis non-replicating, growth inhibition. The assay is described as follows: growth inhibition of non-replicating M. tuberculosis (AID 488890).

The source of these data is PubChem BioAssay AID488890 (Southern Research Specialized Biocontainment Screening …, 2010).

SMILES strings stand for the structures. Inconclusive results are not listed. Active and inactive are the calls of the source. No rule for the calls is given here.

In the case of `CCN(CC)CCNC(=O)c1[nH]c2ccc(OCc3ccccc3)cc2c1C`, the IC50 was 29.6 µM (inactive). As for `O=c1ccn(-c2ccccc2)[nH]1`, the figure is 7.52 µM; as for `Cc1ccc(CC(=O)Nc2ccc(Cl)cn2)cc1`, 1.06 µM. Turning to `COc1ccc(CN2C(=O)/C(=C/c3ccncc3)SC2=S)cc1`, the IC50 is 39.3 µM (inactive). `CC(=O)c1cccc(NC(=O)C2COc3ccccc3O2)c1` (stereo unspecified): the IC50 is 24 µM (inactive). To `C=CCn1c(O)c(C(C)=Nc2ccc(C(=O)OCC)cc2)c(=O)[nH]c1=O` belongs 7.05 µM; to `O=C(N/N=C/C=C/c1ccco1)c1ccncc1`, 1.19 µM; to `CCOC(=O)C1CCN(C(=O)COc2cc(C)c(Br)c(C)c2)CC1`, 18.3 µM (inactive).

Turning to `FC(F)(F)c1nnc2ccc(Cl)nn12`, the IC50 was 1.56 µM. To `CC1COC(=O)C(NNc2ccc(Cl)c(Cl)c2)=N1` (stereo unspecified) belongs 8.67 µM; to `COc1cccc(/C=C2\SC(=S)N(CCC(=O)N3CCCCC3)C2=O)c1`, 9.08 µM; to `CCOC(=O)CNc1ccc(C(=O)OCC)cc1[N+](=O)[O-]`, 11 µM (inactive). Consider `CCCCOC(=O)Cn1c(-c2ccccc2)nc2ccccc2c1=O`, for which the IC50 was 11.3 µM (inactive).

For the molecule `N=C1/C(=C\c2coc3ccccc3c2=O)C(=O)N=C2SC=CN12`, the IC50 was 21.4 µM (inactive).

Take `O=C(O)CCCCCN1C(=O)CSC1=S`: the IC50 is 19.9 µM (inactive). Consider `CCOc1ccc(NCC(=O)c2ccc(C)cc2)cc1`, for which the IC50 was 4.95 µM. On to `COC(=O)COc1ccc(-c2ccc(F)cc2)cc1C=O`, for which the IC50 is 5.82 µM. To `O=C(CCSc1ccccn1)c1ccccc1` belongs 9.72 µM. On to `CC(=O)CC1(OC(C)=O)C(=O)N(C)c2ccccc21` (stereo unspecified), for which the IC50 was 21.5 µM (inactive). To `Cc1occc1C(=O)N/N=C/c1ccc[nH]1` belongs 11.9 µM (inactive); to `CCC(=O)c1ccc(OC(=O)c2ccc(Br)o2)cc1`, 9.81 µM. As for `CCOC(=O)c1ccc(-n2c(CCC(=O)O)ccc2-c2cccs2)cc1`, the figure is 36.2 µM (inactive); as for `C[C@H](NC(=O)c1[nH]cnc1C(=O)Nc1ccccc1)C(=O)OC(C)(C)C`, 18.9 µM (inactive); as for `CCC/C(=N\NC(=O)c1ccco1)c1ccc(Cl)s1`, 9.41 µM. In the case of `CCC(=O)c1ccc(OCC(=O)OCC(=O)N2CCc3ccccc3C2)cc1`, the IC50 is 13 µM (inactive).

Consider `COc1cc(/C=C2/C(=O)NN(c3cccc(F)c3)C2=O)ccc1OC(=O)c1ccco1`, for which the IC50 was 5.04 µM.

Regarding `CC(NC(=O)COc1ccccc1F)C1CC2CCC1C2` (stereo unspecified), the half-inhibitory concentration (IC50) is 0.42 µM. As for `COc1cccc(-c2nnc(NC(=O)c3ccc(S(=O)(=O)N(CC(C)C)CC(C)C)cc3)o2)c1`, the figure is 13.7 µM (inactive); as for `COc1cc(C=O)ccc1OCCCCOc1ccccc1[N+](=O)[O-]`, 27.6 µM (inactive).

With `Cc1ccc(C(=O)N/N=C\c2ccc(-c3ccc(Cl)cc3)o2)cn1`, the IC50 is 7.02 µM. Take `FC(F)(Cl)c1nnc2ccc(Cl)nn12`: the half-inhibitory concentration (IC50) is 1.38 µM. To `O=c1c2c([N+](=O)[O-])cc([N+](=O)[O-])cc2sn1-c1ccc(Br)cc1` belongs 18.5 µM (inactive). To `O=C(CCc1ccccc1F)N1CCN(c2ccccc2)CC1` belongs 2.08 µM; to `Cc1onc(-c2ccccc2Cl)c1C(=O)O/N=C(\N)c1ccc([N+](=O)[O-])o1`, 4.55 µM; to `O=C(CCC1CCCCC1)NCc1cccs1`, 0.27 µM. In the case of `CN1CCC(O)(c2ccccc2)C(C(=O)c2ccccc2)C1` (stereo unspecified), the IC50 was 4.85 µM. As for `CC1(C)Oc2ccc(NC(=O)C3COc4ccccc4O3)cc2O1` (stereo unspecified), the figure is 12.9 µM (inactive). As for `Cc1cc2cc(CNC(=O)COc3ccccc3)ccc2n1C`, the figure is 26 µM (inactive); as for `CN(C)CCCn1c(=O)n(CCc2ccccc2)c(=O)c2c3c(sc21)CCCCC3`, 16.9 µM (inactive). To `CC(C)CN(Cc1c(O)ccc2ccccc12)CC(C)C` belongs 20.4 µM (inactive); to `CCCCCC(=O)N/N=C(\C)c1ccccn1`, 9.55 µM; to `O=C1N/C(=N\c2ccccn2)SC1Cc1ccc(Cl)cc1` (stereo unspecified), 3.91 µM. For the molecule `COc1ccc(C(C#N)=C2C=CC(=NO)C=C2)cc1`, the IC50 is 16 µM (inactive). To `CCOc1ccc(NC(=O)CCc2ccc(C)o2)cc1` belongs 7.77 µM; to `CC(Oc1ccc2ccccc2c1)C(=O)NNC(=S)NC(=O)c1ccco1` (stereo unspecified), 22.1 µM (inactive); to `O=C(c1cc([N+](=O)[O-])cc([N+](=O)[O-])c1)N(Cc1nnc(-c2ccccc2Cl)o1)C1CC1`, 4.46 µM. To `N=c1oc2ccccc2cc1C(=O)Nc1ccccc1` belongs 33 µM (inactive); to `O=[N+]([O-])c1ccc(CSc2nnc(-c3cccnc3)o2)cc1`, 0.81 µM; to `S=C1SCN(Cc2ccco2)CN1Cc1ccco1`, 14.1 µM (inactive). On to `Cc1cc(Cl)ccc1OCC(=O)NNC(=O)c1cnccn1`, for which the concentration for half-maximal inhibition (IC50) is 6.05 µM.

Regarding `COc1ccccc1NC(=O)C(=O)/C=C(\O)c1ccccc1`, the IC50 was 15.4 µM (inactive). To `CCc1cc2c(=O)n(C(C)C(=O)OC3CCCCC3)cnc2s1` (stereo unspecified) belongs 16.6 µM (inactive); to `O=C(NC1CCCC1)c1nc2c(nnn2Cc2cccc(Cl)c2)c(=O)[nH]1`, 19.8 µM (inactive); to `Cc1cc(C(=O)N/N=C/c2ccc(OC(=O)c3ccccc3Br)cc2)n[nH]1`, 15.6 µM (inactive). To `c1cncc(-c2noc(CC3CCCCC3)n2)c1` belongs 1.25 µM; to `Nc1nnnn1/N=C/C(Br)=C/c1ccccc1`, 13.5 µM (inactive). With `O=C(CCN1CCN(C/C=C/c2ccccc2)CC1)Nc1ccc(Cl)cc1`, the IC50 was 18.8 µM (inactive). To `C/C(=N\NC(=O)c1ccco1)c1cc(Cl)sc1Cl` belongs 4.89 µM; to `CCOc1ccc(-c2nnc(NC(=O)CCCOc3cccc(C)c3)o2)cc1`, 15 µM (inactive). To `C/C(=N\O)c1cc(Cl)ccc1O` belongs 2.42 µM; to `O=c1c2c([N+](=O)[O-])cc([N+](=O)[O-])cc2nc2ccccn12`, 9.45 µM. Regarding `CC(=O)c1ccc(OC(=O)c2ccc(-n3nc(C)cc3C)cc2)cc1`, the IC50 is 2.45 µM. Consider `CSCCOC(=O)COc1ccc(/C=N/NC(=O)c2c(Cl)cnn2C)cc1`, for which the half-maximal inhibitory concentration (IC50) was 8.85 µM.

`Fc1ccc(-c2nn(-c3ccccc3)cc2CNCc2ccccc2)cc1`: the half-inhibitory concentration (IC50) is 8.72 µM. For the molecule `O=C(OCc1cccc([N+](=O)[O-])c1)c1ccc2ccccc2n1`, the IC50 is 7.25 µM.

With `CCCc1nnc(-c2ccc(OC)cc2)o1`, the IC50 was 1.24 µM. For `Cc1ccc(S(=O)(=O)NCC(=O)OCCOc2cccc(Cl)c2)cc1`, the IC50 is 27.7 µM (inactive). To `Clc1ccc2c(N3CCCC3)ccnc2c1` belongs 16.4 µM (inactive); to `Cc1ccc(-c2cc(C(F)F)nc(S(C)(=O)=O)n2)cc1`, 6.96 µM. To `CN(C)Cc1ccccc1Sc1ccc(Br)cc1` belongs 27.7 µM (inactive); to `O=C(COC(=O)CCc1c[nH]c2ccccc12)NCc1ccc(Cl)cc1`, 7.82 µM; to `O=C(NNc1nc2cc3c(cc2s1)OCCO3)c1ccccc1`, 23.5 µM (inactive).

On to `O=C(c1ccc([N+](=O)[O-])cc1[N+](=O)[O-])N1CCc2ccccc21`, for which the half-maximal inhibitory concentration (IC50) was 3.34 µM. As for `Oc1ccc2cc(Br)ccc2c1CN1CCCC1`, the figure is 7.29 µM. As for `O=C(N/N=C\c1ccc([N+](=O)[O-])o1)C1COc2ccccc2O1` (stereo unspecified), the IC50 was 2.27 µM. To `Cc1cc(-c2n[nH]c(=S)n2/N=C/C(Br)=C/c2ccccc2)n[nH]1` belongs 19.8 µM (inactive); to `COC(=O)C(O)(c1ccc(NC(=S)NC(=O)c2ccccc2)cc1)C(F)(F)F` (stereo unspecified), 14.8 µM (inactive). To `Cc1ccc(NC(=O)c2ccc([N+](=O)[O-])o2)cc1C` belongs 0.28 µM.

In the case of `CC(C)n1c(=S)[nH]c2ccccc2c1=O`, the IC50 is 14.2 µM (inactive).

On to `Cc1ccc2cc3c(nc2c1)OCC3`, for which the half-inhibitory concentration (IC50) is 6.8 µM.

`O=[N+]([O-])c1ccc(/C=N/NS(=O)(=O)c2ccc(Cl)cc2)o1`: the IC50 is 14.7 µM (inactive). As for `COc1cccc(CN2CCC(N(CCc3ccccc3)Cc3ccccc3)CC2)c1OC`, the figure is 14.3 µM (inactive); as for `CCC(C)c1ccc(OCCn2ccnc2)cc1` (stereo unspecified), 10.4 µM (inactive); as for `O=C(Oc1ccc(/C=N/O)cc1)c1ccccc1Cl`, 12.4 µM (inactive). Take `COc1ccc(N=N/C(=C\O)C(=O)c2cccs2)cc1`: the 50% inhibitory concentration (IC50) was 9.69 µM. To `COc1ccc(COC(=O)CCNC(=O)c2ccc(Cl)cc2)cc1` belongs 8.25 µM. As for `Cc1cc(C)c2ccc(/C=N/O)nc2c1O`, the figure is 5.77 µM. For `c1ccc(C2=Nc3ccccc3OC2)cc1`, the IC50 is 4.54 µM. `CCOC(=O)COc1ccc2ccccc2c1/C=C/[N+](=O)[O-]`: the IC50 was 2.32 µM. As to `CCN(CC)CCSc1nnc2c3cc(C)ccc3n(Cc3ccccc3)c2n1`, the IC50 is 14.3 µM (inactive). As to `Cc1cc(C)cc(OCC(=O)N/N=C/c2ccc([N+](=O)[O-])o2)c1`, the IC50 is 1.36 µM. Consider `Cc1nc2ccccc2n1/N=C/c1ccc([N+](=O)[O-])s1`, for which the IC50 was 0.32 µM. Take `c1ccc(C[C@H]2CNCCN2CCCCC2CCCCC2)cc1`: the IC50 is 17.7 µM (inactive). With `Cc1ccc(-c2nnc(Cc3ccc([N+](=O)[O-])cc3)o2)cc1`, the IC50 is 1.77 µM.

Turning to `O=C(C/C=N\OCc1ccc([N+](=O)[O-])cc1)Nc1ccc(Cl)cc1`, the IC50 is 5.29 µM. Consider `CC(=O)N1CCN(c2cc3c(cc2F)c(=O)c(C(=O)O)cn3C2CC2)CC1`, for which the IC50 is 1.42 µM. As for `Cc1cc(C)n(-c2ccc(C(=O)Oc3ccc4c(c3)OCO4)cc2)n1`, the figure is 11.9 µM (inactive). To `O=C(Nc1ncc(Cc2ccccc2Cl)s1)C1=NCCN1` belongs 4.18 µM. Consider `CC(C)Oc1ccc(C(=O)CCN2CCCCC2)cc1`, for which the IC50 is 6.21 µM. To `CCCN(CCC)S(=O)(=O)c1ccc(C(=O)Nc2nnc(-c3cccc(OC)c3)o2)cc1` belongs 11.3 µM (inactive); to `O=C(Nc1nnc(-c2ccncc2)o1)c1ccc(Br)s1`, 7.66 µM.
